Experimental data as given in patent US12350382B2, “Method for preparing particles comprising metal oxide coating and particles with metal oxide coating” (priority 2007, dated 2025).

Test: Analytical evaluation of the BPO release out of the silica shell (time for yellow color appearance, KI/sodium thiosulfate)
Format: physicochemical
Details: free (uncoated) BPO, 0 coatings, no aging
Procedure: The release profile of BPO out of the silica shell was done in a water/Acetonitrile solution, which is capable of dissolving BPO. The method is based on the strong oxidation properties of BPO. BPO reacts with potassium iodine (KI) ions to form I2, which gives a color reaction. I2 is than reduces back to I^− using sodium thiosulfate (STS) to eliminate the color. Each 12.11 mg of oxidizing BPO was reduced by 1 ml of 0.1M STS.
Solution A is composed of deionized water, acetone, 0.1M STS solution and KI.
The following table includes the ratios between the components in order to distinguish a certain % of released BPO.
Suspension B, preparation of BPO: weigh 200 mg of BPO as 100% (1 g as 20% suspension) into 5 ml measuring bottle and fill with deionized water up to 5 ml.
Procedure: Into 50 ml glass beaker add 40 ml of solution A and the 5 ml of suspension B and measure the time for yellow color appearance.

time for 30 % of BPO released: 0.5 min
time for 90 % of BPO released: 1 min
Compound: O=C(OOC(=O)c1ccccc1)c1ccccc1 [Free BPO, benzoyl peroxide]
